Source: ChEMBL document CHEMBL5291721, “A preclinical secondary pharmacology resource illuminates target-adverse drug reaction associations of marketed drugs” (Nat Commun, 2023)

How the values were obtained:
Vasopressin V1a receptor = Vasopressin V1a receptor (Homo sapiens, UniProt P37288)
B2 bradykinin receptor = molecular target: T1, B2 bradykinin receptor (Homo sapiens, UniProt P30411)
T1 sequence (P30411 whole entry): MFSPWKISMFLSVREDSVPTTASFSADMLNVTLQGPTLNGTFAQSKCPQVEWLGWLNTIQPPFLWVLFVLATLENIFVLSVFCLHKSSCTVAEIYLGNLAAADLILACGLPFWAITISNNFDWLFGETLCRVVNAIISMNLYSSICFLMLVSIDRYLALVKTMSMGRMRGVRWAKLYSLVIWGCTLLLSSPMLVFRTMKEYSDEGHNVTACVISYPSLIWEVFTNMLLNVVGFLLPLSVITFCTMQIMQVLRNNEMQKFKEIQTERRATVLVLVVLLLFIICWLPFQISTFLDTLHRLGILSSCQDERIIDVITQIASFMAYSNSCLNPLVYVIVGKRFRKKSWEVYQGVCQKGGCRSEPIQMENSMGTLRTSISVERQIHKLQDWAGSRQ

[1] = molecular target: T2, Muscarinic acetylcholine receptor M1 (Homo sapiens, UniProt P11229); type: functional
T2 sequence (P11229 whole entry): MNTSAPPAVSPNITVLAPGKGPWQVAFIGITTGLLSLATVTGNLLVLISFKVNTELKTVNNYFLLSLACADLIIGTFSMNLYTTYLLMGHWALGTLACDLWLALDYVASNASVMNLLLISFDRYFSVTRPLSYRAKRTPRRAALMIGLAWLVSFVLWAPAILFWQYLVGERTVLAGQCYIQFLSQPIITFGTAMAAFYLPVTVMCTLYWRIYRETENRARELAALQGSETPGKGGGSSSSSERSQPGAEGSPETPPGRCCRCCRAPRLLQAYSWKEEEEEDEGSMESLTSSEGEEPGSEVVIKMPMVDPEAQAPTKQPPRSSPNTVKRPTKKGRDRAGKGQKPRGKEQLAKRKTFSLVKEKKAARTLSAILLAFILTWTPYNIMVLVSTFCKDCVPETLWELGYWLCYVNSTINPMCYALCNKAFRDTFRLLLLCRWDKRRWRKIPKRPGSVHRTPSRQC

[2] = molecular target: 5-hydroxytryptamine receptor 2A (Homo sapiens, UniProt P28223); type: functional, cell-based
Sequence of 5-hydroxytryptamine receptor 2A (P28223 whole entry): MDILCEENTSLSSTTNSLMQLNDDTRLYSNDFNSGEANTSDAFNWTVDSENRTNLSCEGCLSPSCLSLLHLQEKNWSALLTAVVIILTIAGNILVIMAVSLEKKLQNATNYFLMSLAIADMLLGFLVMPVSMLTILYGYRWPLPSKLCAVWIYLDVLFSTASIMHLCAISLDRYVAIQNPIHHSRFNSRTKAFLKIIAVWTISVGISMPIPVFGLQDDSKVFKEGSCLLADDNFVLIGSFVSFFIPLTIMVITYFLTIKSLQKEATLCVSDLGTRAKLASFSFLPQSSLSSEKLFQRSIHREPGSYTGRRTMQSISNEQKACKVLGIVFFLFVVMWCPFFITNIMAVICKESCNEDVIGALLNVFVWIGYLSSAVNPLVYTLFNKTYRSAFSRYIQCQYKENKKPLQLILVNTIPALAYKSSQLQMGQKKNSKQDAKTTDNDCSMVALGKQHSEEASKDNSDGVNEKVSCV

Melanocortin receptor 3 = Melanocortin receptor 3 (Homo sapiens, UniProt P41968)
Sequence of Melanocortin receptor 3 (P41968 whole entry): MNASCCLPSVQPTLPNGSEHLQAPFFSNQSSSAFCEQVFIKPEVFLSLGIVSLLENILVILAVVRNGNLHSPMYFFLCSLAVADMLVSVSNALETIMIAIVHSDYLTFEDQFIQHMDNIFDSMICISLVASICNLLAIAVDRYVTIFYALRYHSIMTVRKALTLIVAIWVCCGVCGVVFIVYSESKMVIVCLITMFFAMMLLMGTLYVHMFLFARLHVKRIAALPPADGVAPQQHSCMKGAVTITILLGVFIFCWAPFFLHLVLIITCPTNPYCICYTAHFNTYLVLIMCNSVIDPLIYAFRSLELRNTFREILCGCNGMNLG

Progesterone receptor = molecular target: T3, Progesterone receptor (Homo sapiens, UniProt P06401); type: functional
T3 sequence (P06401 whole entry): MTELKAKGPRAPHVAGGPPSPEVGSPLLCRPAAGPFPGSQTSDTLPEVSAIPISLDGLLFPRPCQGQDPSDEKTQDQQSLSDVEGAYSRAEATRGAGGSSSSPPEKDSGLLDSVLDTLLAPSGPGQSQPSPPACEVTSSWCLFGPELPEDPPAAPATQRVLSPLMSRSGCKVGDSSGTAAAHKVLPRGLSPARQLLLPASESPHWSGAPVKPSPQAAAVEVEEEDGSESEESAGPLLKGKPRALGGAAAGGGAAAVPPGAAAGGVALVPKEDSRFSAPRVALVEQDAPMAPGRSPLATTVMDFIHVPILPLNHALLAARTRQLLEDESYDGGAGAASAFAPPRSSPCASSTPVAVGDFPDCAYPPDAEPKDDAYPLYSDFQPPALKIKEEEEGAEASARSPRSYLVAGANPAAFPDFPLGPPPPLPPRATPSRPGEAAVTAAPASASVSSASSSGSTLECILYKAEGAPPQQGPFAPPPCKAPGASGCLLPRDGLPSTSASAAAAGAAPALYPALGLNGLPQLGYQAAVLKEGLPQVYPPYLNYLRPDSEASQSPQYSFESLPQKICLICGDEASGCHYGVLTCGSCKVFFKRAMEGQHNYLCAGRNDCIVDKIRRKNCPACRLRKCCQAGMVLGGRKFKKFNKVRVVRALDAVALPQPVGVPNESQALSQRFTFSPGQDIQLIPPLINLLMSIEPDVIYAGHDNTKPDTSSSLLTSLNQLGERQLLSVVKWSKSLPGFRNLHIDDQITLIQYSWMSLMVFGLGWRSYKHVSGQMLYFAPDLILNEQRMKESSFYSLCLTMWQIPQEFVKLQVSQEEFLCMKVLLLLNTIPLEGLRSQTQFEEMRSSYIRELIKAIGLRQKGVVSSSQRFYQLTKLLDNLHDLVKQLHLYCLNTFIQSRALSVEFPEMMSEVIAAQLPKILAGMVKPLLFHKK

[3] = molecular target: Sodium-dependent serotonin transporter (Homo sapiens, UniProt P31645)
Sequence of Sodium-dependent serotonin transporter (P31645 whole entry): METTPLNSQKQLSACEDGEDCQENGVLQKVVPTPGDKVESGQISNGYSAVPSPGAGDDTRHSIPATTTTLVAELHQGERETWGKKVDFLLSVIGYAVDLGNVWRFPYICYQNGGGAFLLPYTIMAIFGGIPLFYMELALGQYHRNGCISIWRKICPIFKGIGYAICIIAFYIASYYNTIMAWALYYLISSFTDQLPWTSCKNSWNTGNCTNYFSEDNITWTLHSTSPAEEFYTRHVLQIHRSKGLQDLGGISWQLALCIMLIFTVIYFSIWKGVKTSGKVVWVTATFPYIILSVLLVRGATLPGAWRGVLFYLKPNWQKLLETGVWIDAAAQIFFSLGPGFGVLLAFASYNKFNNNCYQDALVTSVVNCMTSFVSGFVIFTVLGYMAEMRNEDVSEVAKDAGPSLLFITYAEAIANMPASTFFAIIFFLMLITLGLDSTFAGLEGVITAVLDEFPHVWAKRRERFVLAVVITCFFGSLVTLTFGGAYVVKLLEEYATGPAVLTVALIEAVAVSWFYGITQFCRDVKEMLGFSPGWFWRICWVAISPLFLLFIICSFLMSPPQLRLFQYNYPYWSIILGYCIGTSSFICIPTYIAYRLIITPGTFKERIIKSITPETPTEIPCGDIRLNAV

Histamine H3 receptor = Histamine H3 receptor (Homo sapiens, UniProt Q9Y5N1)
Sequence of Histamine H3 receptor (Q9Y5N1 whole entry): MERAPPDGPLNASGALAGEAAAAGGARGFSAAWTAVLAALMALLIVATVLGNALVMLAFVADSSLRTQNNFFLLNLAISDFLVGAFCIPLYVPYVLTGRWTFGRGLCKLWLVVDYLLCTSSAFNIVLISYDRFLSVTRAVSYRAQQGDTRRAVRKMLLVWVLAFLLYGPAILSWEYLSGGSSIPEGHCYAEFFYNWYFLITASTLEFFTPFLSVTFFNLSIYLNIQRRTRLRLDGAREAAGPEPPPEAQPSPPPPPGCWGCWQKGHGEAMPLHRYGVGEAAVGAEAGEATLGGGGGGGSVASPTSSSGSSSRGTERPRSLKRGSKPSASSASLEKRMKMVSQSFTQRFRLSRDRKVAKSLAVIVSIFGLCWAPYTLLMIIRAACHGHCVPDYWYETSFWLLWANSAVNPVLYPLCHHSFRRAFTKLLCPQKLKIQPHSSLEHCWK

[4] = molecular target: T4, 5-hydroxytryptamine receptor 1A (Homo sapiens, UniProt P08908); type: functional, cell-based
T4 sequence (P08908 whole entry): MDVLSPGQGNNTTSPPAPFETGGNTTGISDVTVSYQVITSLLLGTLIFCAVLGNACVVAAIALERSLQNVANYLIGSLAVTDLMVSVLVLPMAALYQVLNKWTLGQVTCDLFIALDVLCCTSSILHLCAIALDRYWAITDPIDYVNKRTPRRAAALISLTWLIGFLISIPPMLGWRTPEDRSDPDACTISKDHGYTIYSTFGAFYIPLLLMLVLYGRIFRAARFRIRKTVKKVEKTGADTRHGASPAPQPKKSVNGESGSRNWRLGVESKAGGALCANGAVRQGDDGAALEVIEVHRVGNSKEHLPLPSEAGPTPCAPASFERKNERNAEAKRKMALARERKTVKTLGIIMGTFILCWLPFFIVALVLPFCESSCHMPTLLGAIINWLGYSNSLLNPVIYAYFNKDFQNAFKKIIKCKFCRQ
Also: assay procedure not described here.

Sequence of Vasopressin V1a receptor (P37288 whole entry): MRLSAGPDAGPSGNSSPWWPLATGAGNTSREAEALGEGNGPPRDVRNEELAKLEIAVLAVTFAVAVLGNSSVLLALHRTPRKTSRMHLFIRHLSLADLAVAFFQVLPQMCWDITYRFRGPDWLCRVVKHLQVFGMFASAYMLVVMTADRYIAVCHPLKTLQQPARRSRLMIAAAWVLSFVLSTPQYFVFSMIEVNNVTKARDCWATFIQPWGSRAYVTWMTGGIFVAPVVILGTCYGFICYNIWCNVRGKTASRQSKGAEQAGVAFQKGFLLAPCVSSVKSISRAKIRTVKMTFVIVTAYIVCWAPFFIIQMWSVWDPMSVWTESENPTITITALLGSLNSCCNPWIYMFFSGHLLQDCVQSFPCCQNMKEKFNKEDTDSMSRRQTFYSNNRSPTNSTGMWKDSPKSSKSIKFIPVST

SMILES	AC50 (Vasopressin V1a receptor)	AC50 (B2 bradykinin receptor)	AC50 [1]	AC50 [2]	AC50 (Melanocortin receptor 3)	AC50 (Progesterone receptor)	AC50 [3]	AC50 (Histamine H3 receptor)	AC50 [4]
CCCC(CCC)C(=O)O[C@H]1C[C@H]2CC[C@@H](C1)[N+]2(C)C [ANISOTROPINE]	> 30 µM	> 30 µM	0.17 µM	> 30 µM	> 30 µM	> 30 µM	> 30 µM	> 30 µM	
COc1ccc(C(=O)NCc2ccc(OCCN(C)C)cc2)cc1OC [ITOPRIDE]	> 30 µM	> 30 µM	> 30 µM	> 30 µM	> 30 µM	> 30 µM	> 30 µM	19 µM	
CCC1(C2=CCCCCC2)C(=O)NC(=O)NC1=O [HEPTABARBITAL]	> 10 µM	> 10 µM	> 10 µM	> 10 µM	> 10 µM	> 10 µM	> 10 µM	> 10 µM	
CC(Cc1ccccc1)NCCC(c1ccccc1)c1ccccc1 (configuration not stated) [PRENYLAMINE]	> 30 µM	> 30 µM	> 10 µM	> 30 µM	> 30 µM		17.6 µM	> 10 µM	
[H]/N=C(/N)c1ccc(NCc2nc3cc(C(=O)N(CCC(=O)O)c4ccccn4)ccc3n2C)cc1 [DABIGATRAN]	> 30 µM	> 30 µM	> 30 µM	> 30 µM	> 30 µM	> 30 µM	> 30 µM	> 30 µM	
CCCCCCCCOc1ccccc1C(=O)Nc1ccc(C(=O)OCC[N+](C)(CC)CC)cc1 [OTILONIUM BROMIDE]	13 µM	> 30 µM	1.3 µM	> 30 µM	5.1 µM	> 30 µM	0.91 µM	17 µM	
CCCCCCCCCCCC[N+](C)(C)CCOc1ccccc1 [DOMIPHEN]	11 µM	> 30 µM	8.9 µM	> 30 µM		> 30 µM	1.7 µM	12 µM	
COc1ccc(C(=O)N2CCN(c3ccc4c(c3)CCC(=O)N4)CC2)cc1OC [VESNARINONE]	> 30 µM	> 30 µM	> 30 µM	> 30 µM	> 30 µM	12 µM	21 µM	> 30 µM	
C1COC(NC(C2CC2)C2CC2)=N1 [RILMENIDINE]	> 30 µM	> 30 µM	> 10 µM	> 30 µM	> 30 µM		> 30 µM	> 10 µM	> 30 µM
CN1CCc2cccc3c2[C@H]1Cc1ccc(O)c(O)c1-3 [APOMORPHINE]	> 30 µM	> 30 µM	> 30 µM	> 30 µM	> 30 µM		21.9 µM	> 10 µM	
Cc1cc(-c2ccccc2)nnc1NCCN1CCOCC1 [MINAPRINE]	> 10 µM	> 30 µM	> 10 µM	> 30 µM	> 30 µM		> 10 µM	> 10 µM	> 10 µM
CN(C)C(=O)OC1N=C(c2ccccc2)c2cc(Cl)ccc2N(C)C1=O (configuration not stated) [CAMAZEPAM]	> 10 µM	> 30 µM	> 10 µM	> 30 µM	> 30 µM		> 10 µM	> 10 µM	> 10 µM
CN1CC(=O)N2[C@H](c3ccc4c(c3)OCO4)c3[nH]c4ccccc4c3C[C@@H]2C1=O	> 30 µM	> 30 µM	> 10 µM	> 30 µM	> 30 µM		34.8 µM	> 10 µM	> 10 µM
Cc1nc2ccc(CN(C)c3ccc(C(=O)N[C@@H](CCC(=O)O)C(=O)O)s3)cc2c(=O)[nH]1 [RALTITREXED]	> 30 µM	> 30 µM	> 30 µM	> 30 µM	> 30 µM	> 30 µM	> 30 µM	> 30 µM	
O=C1NCCN1CCN1CCC(c2cn(-c3ccc(F)cc3)c3ccc(Cl)cc23)CC1 [SERTINDOLE]	> 30 µM	> 30 µM	5 µM		12 µM	> 30 µM	3.4 µM	> 30 µM	
Cc1ccc(-c2nc3ccc(C)cn3c2CC(=O)N(C)C)cc1 [ZOLPIDEM]	> 30 µM	> 30 µM		> 30 µM	> 30 µM	> 30 µM	> 30 µM	> 30 µM	> 10 µM
Nc1ncnc2c1ncn2[C@@H]1O[C@H](COP(=O)(O)O)[C@@H](O)[C@H]1O [ADENOSINE PHOSPHATE]	> 30 µM	> 30 µM	> 30 µM	> 30 µM	> 30 µM	> 30 µM	> 30 µM	> 30 µM	
O=C(OCCN1CCOCC1)c1cccnc1Nc1cccc(C(F)(F)F)c1 [MORNIFLUMATE]	> 30 µM	> 30 µM	> 30 µM	> 30 µM	> 30 µM	> 30 µM	> 30 µM	> 30 µM	
CCOC(=O)[C@H](CCc1ccccc1)N[C@H]1CCCN2CCC[C@@H](C(=O)O)N2C1=O [CILAZAPRIL]	> 30 µM	> 30 µM	> 30 µM	> 30 µM	> 30 µM	> 30 µM	> 30 µM	> 30 µM	
CCOc1cc(N)c([N+](=O)[O-])cc1C(=O)NC1CCN(CC2CC=CCC2)CC1 (configuration not stated) [CINITAPRIDE]	> 30 µM	> 30 µM	14 µM	> 30 µM	> 30 µM	> 30 µM	14 µM	5.9 µM	
O=C(O)CCCc1ccccc1 [PHENYLBUTANOIC ACID]	> 30 µM	> 30 µM	> 30 µM	> 30 µM	> 10 µM		> 10 µM	> 10 µM	> 10 µM
NC(CO)C(=O)NNCc1ccc(O)c(O)c1O (configuration not stated) [BENSERAZIDE]	> 30 µM	> 30 µM	> 10 µM	> 30 µM	> 30 µM		> 30 µM	> 10 µM	> 10 µM
